Some test systems named below: 786-0 renal; HCT-15 colon; KM12 colon; LOX IMVI melanoma; MDA-MB-435; PC-3 prostate; SK-MEL-28 melanoma; TK-10 renal; UACC-62 melanoma; HCC-2998 colon.
Common to all, as to assay: growth of human tumour cells (NCI), 48 h

The structures appear in SMILES notation.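 Results reflect a 48-hour exposure of cells in 96-well plates to compound at five concentrations. GI50: concentration for 50% inhibition of growth. Definition used: TGI = concentration required for complete inhibition of growth.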

In the case of `O=C(Nc1cccc(Cl)c1Cl)c1cccc(NC2=C(Cl)C(=O)N(Cc3ccccc3)C2=O)c1`, the GI50 was 49.8 µM in the test with 786-0 renal; 52.1 µM in the test on HCT-15 colon; 82.8 µM in the test on KM12 colon; 13.1 µM in the test on LOX IMVI melanoma; 20.4 µM in the test on MDA-MB-435; 26.9 µM in the test with PC-3 prostate. Also, the GI50 was > 100 µM in the test with SK-MEL-28 melanoma, > 100 µM in the test with TK-10 renal and 22.2 µM in the test on UACC-62 melanoma. Besides, the TGI with 786-0 renal is > 100 µM; in the test with HCT-15 colon, > 100 µM; in the test with KM12 colon it was > 100 µM; with LOX IMVI melanoma, > 100 µM; in the test with MDA-MB-435, 53.2 µM; in the test on PC-3 prostate, 97.4 µM. The TGI with SK-MEL-28 melanoma, with TK-10 renal and with UACC-62 melanoma was > 100 µM in each case.

For `Cc1[nH][nH]c(=O)c1C=Nc1ccc(-c2nc3ccccc3[nH]2)cc1`, the GI50 with 786-0 renal was 18.9 µM; with HCT-15 colon it was 22 µM; in the test with KM12 colon it was 18.3 µM; in the test on LOX IMVI melanoma, 16.8 µM; with MDA-MB-435 it was 16.8 µM; with PC-3 prostate, 80.8 µM. In addition, the GI50 in the test on TK-10 renal is > 100 µM; with UACC-62 melanoma, 15.5 µM. Further, the TGI in the test on 786-0 renal was 38.3 µM; in the test on HCT-15 colon, 55.6 µM; with KM12 colon, 89.7 µM; in the test with LOX IMVI melanoma it was 30.5 µM; in the test with MDA-MB-435 it was 33.7 µM; in the test with PC-3 prostate, > 100 µM. Also, the TGI is > 100 µM with TK-10 renal and 38 µM in the test on UACC-62 melanoma.

For `CC(=O)Oc1ccccc1C(=O)N=C1[Se]CCN1C(=O)c1ccccc1OC(C)=O`, the GI50 was 1.46 µM in the test with 786-0 renal; 2.15 µM with HCC-2998 colon; 1.1 µM in the test with KM12 colon; 0.462 µM in the test on MDA-MB-435; 1.06 µM with PC-3 prostate; 0.492 µM in the test on SK-MEL-28 melanoma. For the same molecule, the results for the GI50 with TK-10 renal and with UACC-62 melanoma were 0.491 µM and 1.04 µM, respectively. The TGI with 786-0 renal was 2.8 µM; in the test with HCC-2998 colon it was 5.79 µM; in the test on KM12 colon, > 100 µM; in the test on MDA-MB-435, 1.87 µM; in the test with PC-3 prostate it was 4.88 µM; in the test with SK-MEL-28 melanoma, 3.25 µM. The TGI in the test on TK-10 renal worked out at 1.87 µM; in the test on UACC-62 melanoma it was 2.84 µM.

On to `O=C(O)c1c(-c2nccc3ccccc23)[nH]c(-c2ccccc2)c1S(=O)(=O)O`, for which the TGI in the test on 786-0 renal, with HCT-15 colon, with KM12 colon, in the test on LOX IMVI melanoma, with MDA-MB-435 and in the test with PC-3 prostate was > 100 µM in each case. Besides, the TGI with SK-MEL-28 melanoma, in the test on TK-10 renal and in the test on UACC-62 melanoma was > 100 µM throughout.

Regarding `O=C1c2ccn(CCCCNC(CO)(CO)CO)c2C(=O)c2c1c(O)c1ccccc1c2O`, the GI50 with 786-0 renal was 2.29 µM; in the test with HCC-2998 colon it was 0.17 µM; in the test on KM12 colon it was 0.592 µM; with MDA-MB-435 it was 0.992 µM; with PC-3 prostate it was 2.83 µM; with SK-MEL-28 melanoma, 6.44 µM. In addition, the GI50 in the test on TK-10 renal is 0.517 µM. Besides, the TGI in the test with 786-0 renal is 6.05 µM; with HCC-2998 colon, 0.515 µM; in the test on KM12 colon, 1.76 µM; in the test with MDA-MB-435, 2.42 µM; in the test on PC-3 prostate, 7.57 µM; with SK-MEL-28 melanoma it was > 43.6 µM. Further, the TGI in the test on TK-10 renal was 1.72 µM; in the test with UACC-62 melanoma, 0.931 µM.

Regarding `O=C(N/N=C\c1cc(Br)ccc1O)c1ccncc1`, the GI50 is 2.46 µM in the test on 786-0 renal; 1.81 µM in the test on HCC-2998 colon; 0.563 µM in the test on HCT-15 colon; 1.97 µM in the test with KM12 colon; 1.07 µM in the test with LOX IMVI melanoma; 5.36 µM in the test with MDA-MB-435. The GI50 in the test on PC-3 prostate was 1.87 µM; with SK-MEL-28 melanoma, 3.52 µM; in the test on UACC-62 melanoma it was 1.45 µM. Moreover, the TGI was > 100 µM in the test with 786-0 renal; > 100 µM in the test with HCC-2998 colon; > 100 µM in the test on HCT-15 colon; > 100 µM in the test on KM12 colon; 94.7 µM in the test with LOX IMVI melanoma; > 100 µM with MDA-MB-435. In addition, the results for the TGI with PC-3 prostate, with SK-MEL-28 melanoma and in the test with UACC-62 melanoma were > 100 µM, > 100 µM and 7.4 µM, respectively.

On to `COC(=O)[C@@H](NC(=O)[C@@H](OC)[C@@H]1Cc2cc3cc(OC4CC(OC5CC(O)C(O)C(C)O5)C(O)C(C)O4)c(C)c(O)c3c(O)c2C(=O)[C@H]1OC1CC(OC2CC(OC3CC(C)(O)C(O)C(C)O3)C(O)C(C)O2)C(O)C(C)O1)C(C)C` (stereo partly specified), for which the GI50 with 786-0 renal is 0.175 µM; in the test on HCC-2998 colon, 0.206 µM; in the test with HCT-15 colon, 0.181 µM; in the test on KM12 colon, 0.154 µM; with MDA-MB-435, 0.13 µM; in the test with PC-3 prostate it was 0.149 µM. Further, the GI50 is 0.0971 µM in the test with SK-MEL-28 melanoma, 0.208 µM in the test on TK-10 renal and 0.0731 µM in the test on UACC-62 melanoma. For the same molecule, the TGI in the test with 786-0 renal is 5.98 µM; in the test with HCC-2998 colon it was > 32.5 µM; in the test on HCT-15 colon it was > 32.5 µM; in the test on KM12 colon, > 32.5 µM; in the test with MDA-MB-435, > 32.5 µM; in the test with PC-3 prostate it was > 32.5 µM. Further, the values for the TGI in the test on SK-MEL-28 melanoma, in the test on TK-10 renal and in the test on UACC-62 melanoma were 6.04 µM, > 32.5 µM and 0.409 µM, respectively.

With `COc1ccc(C2C(C#N)=C(N)OC3=C2COc2ccc(F)cc23)cc1OC` (stereo unspecified), the GI50 in the test with 786-0 renal is 25.6 µM; with HCT-15 colon, 18.8 µM; in the test with KM12 colon, 23.5 µM; with LOX IMVI melanoma it was 11.3 µM; in the test on MDA-MB-435 it was 23.6 µM; in the test with PC-3 prostate, 23.2 µM. Also, the GI50 in the test on SK-MEL-28 melanoma was 51.8 µM; in the test with TK-10 renal, 19.4 µM; in the test on UACC-62 melanoma it was 15.1 µM. Also, the TGI in the test with 786-0 renal was > 100 µM; in the test on HCT-15 colon, 76.5 µM; in the test with KM12 colon it was 69.2 µM; in the test with LOX IMVI melanoma, 24.1 µM; in the test on MDA-MB-435, 62.3 µM; in the test on PC-3 prostate it was 93.6 µM. The TGI with SK-MEL-28 melanoma is > 100 µM; in the test on TK-10 renal, 60.4 µM; in the test on UACC-62 melanoma it was 44.3 µM.

For the molecule `C#C[C@]1(O)CC[C@H]2[C@@H]3CC=C4c5sc(Nc6ccccc6)nc5CC[C@]4(C)[C@H]3CC[C@@]21C`, the GI50 was 0.655 µM in the test with 786-0 renal; 1.91 µM in the test with HCC-2998 colon; 1.69 µM in the test with HCT-15 colon; 2.66 µM in the test with KM12 colon; 3 µM in the test with MDA-MB-435; 1.22 µM with PC-3 prostate. The figures for the GI50 in the test on SK-MEL-28 melanoma, with TK-10 renal and with UACC-62 melanoma were 0.692 µM, 3.79 µM and 2.13 µM, respectively. For the same molecule, the TGI in the test on 786-0 renal stood at 2.12 µM; in the test on HCC-2998 colon, 4.22 µM; with HCT-15 colon, 6.47 µM; in the test with KM12 colon, 12.7 µM; in the test with MDA-MB-435 it was 11.2 µM; in the test on PC-3 prostate, 43.5 µM. Moreover, the figures for the TGI with SK-MEL-28 melanoma, with TK-10 renal and in the test on UACC-62 melanoma were 2.75 µM, 13.2 µM and 6.44 µM, respectively.
